Results reported in US9676789B2, “Aminated derivative of homoharringtonine, preparation method therefor, and application thereof” (HANGZHOU BENSHENG PHARMACEUTICAL CO., LTD., priority 2011, dated 2017).
In brackets after ≈: the same amount, converted by molar mass.

Experiments:
[1] = system: RPMI8226 (multiple myeloma); assay: MTT multiple myeloma cell growth inhibition, 72 h; type: cell-based, human; settings: Homo sapiens, RPMI-8226, RPMI8226, 72 h; for IC50: read-out: IC50; for IC90: read-out: IC90
Protocol: Multiple myeloma and lymphoma cell lines: RPMI8226 (multiple myeloma), purchased from Fuxiang Bio-tech Co. Ltd., Shanghai, China.
(§1) Obtaining 6000 well-growing leukemia cells and inoculating them into wells of a 96-well cell culture plate. The culture medium is the 1640 cell culture medium containing 10% fetal bovine serum. After adding the homoharringtonine derivatives of different concentrations and mixing uniformly, placing the plate in a carbon dioxide cell incubator (5% CO2) at 37° C. and incubating for 72 hours. Then the viable cell concentration is determined by the MTT method.

PC-3 (prostate cancer) = assay: MTT solid tumor cell growth inhibition, 72 h; type: cell-based, human; settings: Homo sapiens, PC-3, 72 h; for IC50: read-out: IC50; for IC90: read-out: IC90
Protocol: (§2) Human solid tumor cell lines: Hep-2 ([…]), A549 (human lung cancer), CaES-17 (esophageal cancer cell), PC-3 (prostate cancer), CNE (nasopharyngeal carcinoma cell), and SK-OV-3 (ovarian cancer cell), all of which are purchased from China Center For Type Culture Collection; RKO (human colon adenocarcinoma cell), MGC 803 (human gastric cancer cell), MG63 (osteosarcoma) and U87 MG (malignant glioma cell), all of which are purchased from Fuxiang Bio-tech Co. Ltd., Shanghai, China; PANC-1 (pancreatic cancer), Huh7 (human liver cancer cell), Becap37 (human breast cancer cell), and Hela (human cervical cancer cell), all of which are donated by Cancer Research Institute of Zhejiang University, China.
(§3) Obtaining 4000 well-growing human solid tumor cells and inoculating them into wells of a 96-well cell culture plate. The culture medium is DMEM High Glucose cell culture medium containing 10% fetal bovine serum. The plate is placed in a carbon dioxide cell incubator (5% CO2) at 37° C. and incubating for 24 hours. After adding the homoharringtonine derivatives of different concentration and mixing uniformly, the plate is placed in a carbon dioxide cell incubator (5% CO2) at 37° C. and incubating for 72 hours. Then the viable cell concentration is determined by the MTT method and the cell viability (%) after drug treatment is calculated. In this experiment, the cell viability of control group (not treated with any compound) is set as 100%.

[2] = system: CNE (nasopharyngeal carcinoma cell); assay: MTT solid tumor cell growth inhibition, 72 h; type: cell-based, human; settings: Homo sapiens; for IC50: read-out: IC50; for IC90: read-out: IC90
Protocol: as §2, §3

[3] = system: CaES-17 (esophageal cancer cell); assay: MTT solid tumor cell growth inhibition, 72 h; type: cell-based, human; settings: Homo sapiens, CaEs17, CaES-17, 72 h; for IC50: read-out: IC50; for IC90: read-out: IC90
Protocol: as §2, §3

[4] = system: PANC-1 (pancreatic cancer); assay: MTT solid tumor cell growth inhibition, 72 h; type: cell-based, human; settings: Homo sapiens, PANC-1, 72 h; for IC50: read-out: IC50; for IC90: read-out: IC90
Protocol: as §2, §3

[5] = system: U87 MG (malignant glioma cell); assay: MTT solid tumor cell growth inhibition, 72 h; type: cell-based, human; settings: Homo sapiens, U-87 MG; for IC50: read-out: IC50; for IC90: read-out: IC90
Protocol: as §2, §3

MG63 (osteosarcoma) = assay: MTT solid tumor cell growth inhibition, 72 h; type: cell-based, human; settings: Homo sapiens, MG 63, 72 h; for IC50: read-out: IC50; for IC90: read-out: IC90
Protocol: as §2, §3

[6] = system: SK-OV-3 (ovarian cancer cell); assay: MTT solid tumor cell growth inhibition, 72 h; type: cell-based, human; settings: Homo sapiens, SK-OV-3, 72 h; for IC50: read-out: IC50; for IC90: read-out: IC90
Protocol: as §2, §3

[7] = system: Huh7 (human liver cancer cell); assay: MTT solid tumor cell growth inhibition, 72 h; type: cell-based; settings: Homo sapiens, Huh-7, Huh7, 72 h; for IC50: read-out: IC50; for IC90: read-out: IC90
Protocol: as §2, §3

[8] = system: MGC 803 (human gastric cancer cell); assay: MTT solid tumor cell growth inhibition, 72 h; type: cell-based; settings: Homo sapiens, MGC 803, 72 h; for IC50: read-out: IC50; for IC90: read-out: IC90
Protocol: as §2, §3

[9] = system: Becap37 (human breast cancer cell); assay: MTT solid tumor cell growth inhibition, 72 h; type: cell-based; settings: Homo sapiens, Becap37, 72 h; for IC50: read-out: IC50; for IC90: read-out: IC90
Protocol: as §2, §3

[10] = system: Hela (human cervical cancer cell); assay: MTT solid tumor cell growth inhibition, 72 h; type: cell-based; settings: Homo sapiens, HeLa; for IC50: read-out: IC50; for IC90: read-out: IC90
Protocol: as §2, §3

[11] = system: RKO (human colon adenocarcinoma cell); assay: MTT solid tumor cell growth inhibition, 72 h; type: cell-based; settings: Homo sapiens; for IC50: read-out: IC50; for IC90: read-out: IC90
Protocol: as §2, §3

A549 (human lung cancer) = assay: MTT solid tumor cell growth inhibition, 72 h; type: cell-based; settings: Homo sapiens, A549, 72 h; for IC50: read-out: IC50; for IC90: read-out: IC90
Protocol: as §2, §3

[12] = system: Hep-2 (human hepatocellular carcinoma); assay: MTT solid tumor cell growth inhibition, 72 h; type: cell-based; settings: Homo sapiens, HEp-2, Hep2, 72 h; for IC50: read-out: IC50; for IC90: read-out: IC90
Protocol: as §2, §3

[13] = system: A549, PANC-1, Becap37, MG63, Huh7, RKO, Hela, CaES-17, CNE, Hep-2, PC-3 and SK-OV-3; assay: Anti-human solid tumor effect, summary over cell lines; type: cell-based; settings: result in words, summary of Table 2
Protocol: as §2, §3

[14] = system: Kasumi-1 (acute myeloid leukemia M2 type, AML-M2); assay: MTT leukemia cell growth inhibition, 72 h; type: cell-based, human; settings: Homo sapiens, Kasumi-1, 72 h; for IC50: read-out: IC50; for IC90: read-out: IC90
Description: (§4) Leukemia cell lines: K562/adr (drug-resistant, chronic myeloid leukemia, CML), NB4 (acute promyelocytic leukemia, AML), Kasumi-1 (acute myeloid leukemia M2 type, AML-M2), Jurkat (acute lymphoblastic leukemia, ALL), all of which are donated by Cancer Research Institute of Zhejiang University, China; and H9 (acute lymphoblastic leukemia, ALL), which is purchased from China Center for Type Culture Collection.
as §1, with “method. In this experiment, the cell viability in control group (not treated with any compound) is set as 100%.” for “method.”

[15] = system: NB4 (acute promyelocytic leukemia, AML); assay: MTT leukemia cell growth inhibition, 72 h; type: cell-based, human; settings: Homo sapiens, NB4, 72 h; for IC50: read-out: IC50; for IC90: read-out: IC90
Description: as §4
as §1, with “method. In this experiment, the cell viability in control group (not treated with any compound) is set as 100%.” for “method.”

[16] = system: H9 (acute lymphoblastic leukemia, ALL); assay: MTT leukemia cell growth inhibition, 72 h; type: cell-based, human; settings: Homo sapiens, H9, 72 h; for IC50: read-out: IC50; for IC90: read-out: IC90
Description: as §4
as §1, with “method. In this experiment, the cell viability in control group (not treated with any compound) is set as 100%.” for “method.”

[17] = system: Jurkat (acute lymphoblastic leukemia, ALL); assay: MTT leukemia cell growth inhibition, 72 h; type: cell-based, human; settings: Homo sapiens; for IC50: read-out: IC50; for IC90: read-out: IC90
Description: as §4
as §1, with “method. In this experiment, the cell viability in control group (not treated with any compound) is set as 100%.” for “method.”

[18] = system: K562/adr (drug-resistant, chronic myeloid leukemia, CML); assay: MTT leukemia cell growth inhibition, 72 h; type: cell-based, human; settings: Homo sapiens, K562/Adr; for IC50: read-out: IC50; for IC90: read-out: IC90
Description: as §4
as §1, with “method. In this experiment, the cell viability in control group (not treated with any compound) is set as 100%.” for “method.”

COC1=C[C@]23CCCN2CCc2cc4c(cc2[C@@H]3[C@@H]1OC(=O)[C@@](O)(CCCC(C)(C)O)CC(=O)N1CCN(c2ccc(F)cc2)CC1)OCO4 [BS-HH-046, O-3-[(2R)-2,6-dihydroxy-2-(2′-(4-(4-fluorophenyl)piperazinyl)-2′-oxoethyl)-6-methylheptanoyl]cephalotaxine]
IC50 [1]: 0.17 µg/mL (≈ 0.245 µM) | IC90 [1]: 0.72 µg/mL (≈ 1.04 µM) | IC50 (PC-3 (prostate cancer)): 0.78 µg/mL (≈ 1.12 µM) | IC90 (PC-3 (prostate cancer)): > 16 µg/mL | IC50 [2]: 0.3 µg/mL (≈ 0.432 µM) | IC90 [2]: 16 µg/mL (≈ 23.1 µM) | IC50 [3]: 0.98 µg/mL (≈ 1.41 µM) | IC90 [3]: 16 µg/mL (≈ 23.1 µM) | IC50 [4]: 0.45 µg/mL (≈ 0.649 µM) | IC90 [4]: > 16 µg/mL | IC50 [5]: 0.25 µg/mL (≈ 0.36 µM) | IC90 [5]: > 16 µg/mL | IC50 (MG63 (osteosarcoma)): 0.23 µg/mL (≈ 0.332 µM) | IC90 (MG63 (osteosarcoma)): > 16 µg/mL | IC50 [6]: 1.89 µg/mL (≈ 2.72 µM) | IC90 [6]: > 16 µg/mL | IC50 [7]: 1.37 µg/mL (≈ 1.97 µM) | IC90 [7]: > 16 µg/mL | IC50 [8]: 0.39 µg/mL (≈ 0.562 µM) | IC90 [8]: 8.28 µg/mL (≈ 11.9 µM) | IC50 [9]: 0.4 µg/mL (≈ 0.577 µM) | IC90 [9]: > 16 µg/mL | IC50 [10]: 1.56 µg/mL (≈ 2.25 µM) | IC90 [10]: > 16 µg/mL | IC50 [11]: 0.054 µg/mL (≈ 0.0778 µM) | IC90 [11]: 0.93 µg/mL (≈ 1.34 µM) | IC50 (A549 (human lung cancer)): 0.84 µg/mL (≈ 1.21 µM) | IC90 (A549 (human lung cancer)): > 16 µg/mL | IC50 [12]: 0.27 µg/mL (≈ 0.389 µM) | IC90 [12]: > 16 µg/mL | anti-A549, anti-PANC-1, anti-Becap37, anti-MG63, anti-Huh7, anti-RKO, anti-Hela, anti-CaES-17, anti-CNE, anti-Hep-2, anti-PC-3 and anti-SK-OV-3 effect [13]: strong | IC50 [14]: 0.26 µg/mL (≈ 0.375 µM) | IC90 [14]: 2.26 µg/mL (≈ 3.26 µM) | IC50 [15]: 0.19 µg/mL (≈ 0.274 µM) | IC90 [15]: 0.5 µg/mL (≈ 0.721 µM) | IC50 [16]: 0.5 µg/mL (≈ 0.721 µM) | IC90 [16]: 7.84 µg/mL (≈ 11.3 µM) | IC50 [17]: 0.32 µg/mL (≈ 0.461 µM) | IC90 [17]: 15.2 µg/mL (≈ 21.9 µM) | IC50 [18]: 14.5 µg/mL (≈ 20.9 µM) | IC90 [18]: > 16 µg/mL

COC(=O)C[C@](O)(CCCC(C)(C)O)C(=O)O[C@@H]1C(OC)=C[C@]23CCCN2CCc2cc4c(cc2[C@H]13)OCO4 [HHT, O-3-[(2R)-2,6-dihydroxy-2-(2′-methoxy-2′-oxoethyl)-6-methylheptanoyl]cephalotaxine, reference compound]
IC50 [1]: 0.006 µg/mL (≈ 0.011 µM) | IC90 [1]: 0.027 µg/mL (≈ 0.0495 µM) | IC50 (PC-3 (prostate cancer)): 0.004 µg/mL (≈ 0.00733 µM) | IC90 (PC-3 (prostate cancer)): 0.049 µg/mL (≈ 0.0898 µM) | IC50 [2]: 0.038 µg/mL (≈ 0.0696 µM) | IC90 [2]: > 16 µg/mL | IC50 [3]: 0.037 µg/mL (≈ 0.0678 µM) | IC90 [3]: > 16 µg/mL | IC50 [4]: 0.035 µg/mL (≈ 0.0641 µM) | IC90 [4]: > 16 µg/mL | IC50 [5]: 0.004 µg/mL (≈ 0.00733 µM) | IC90 [5]: 0.018 µg/mL (≈ 0.033 µM) | IC50 (MG63 (osteosarcoma)): 0.01 µg/mL (≈ 0.0183 µM) | IC90 (MG63 (osteosarcoma)): 1.2 µg/mL (≈ 2.2 µM) | IC50 [6]: 0.003 µg/mL (≈ 0.0055 µM) | IC90 [6]: 0.009 µg/mL (≈ 0.0165 µM) | IC50 [7]: 0.004 µg/mL (≈ 0.00733 µM) | IC90 [7]: 0.049 µg/mL (≈ 0.0898 µM) | IC50 [8]: 0.016 µg/mL (≈ 0.0293 µM) | IC90 [8]: 0.2 µg/mL (≈ 0.367 µM) | IC50 [9]: 0.01 µg/mL (≈ 0.0183 µM) | IC90 [9]: 11.6 µg/mL (≈ 21.2 µM) | IC50 [10]: 0.019 µg/mL (≈ 0.0348 µM) | IC90 [10]: 16 µg/mL (≈ 29.3 µM) | IC50 [11]: 0.003 µg/mL (≈ 0.0055 µM) | IC90 [11]: 0.009 µg/mL (≈ 0.0165 µM) | IC50 (A549 (human lung cancer)): 0.03 µg/mL (≈ 0.055 µM) | IC90 (A549 (human lung cancer)): > 16 µg/mL | IC50 [12]: 0.014 µg/mL (≈ 0.0257 µM) | IC90 [12]: > 16 µg/mL | IC50 [14]: 0.005 µg/mL (≈ 0.00916 µM) | IC90 [14]: 0.024 µg/mL (≈ 0.044 µM) | IC50 [15]: 0.006 µg/mL (≈ 0.011 µM) | IC90 [15]: 0.012 µg/mL (≈ 0.022 µM) | IC50 [16]: 0.02 µg/mL (≈ 0.0367 µM) | IC90 [16]: 0.046 µg/mL (≈ 0.0843 µM) | IC50 [17]: 0.007 µg/mL (≈ 0.0128 µM) | IC90 [17]: 16 µg/mL (≈ 29.3 µM) | IC50 [18]: 0.035 µg/mL (≈ 0.0641 µM) | IC90 [18]: 0.98 µg/mL (≈ 1.8 µM)
